# Source: patent publication US20040229205A1, “Compositions for the storage of platelets” (priority 2003, published 2004)
# Assays:
# [1] = system: platelets (P-selectin expression); assay: P-selectin expression of stored platelets by flow cytometry, basal and after 10 nM thrombin challenge; type: cell-based; settings: for Difference (% capable of being activated) / % Positive / P-Selectin Expression: five day stored platelets; for retained P-selectin expression activity: thrombin challenge
# Text: Internal protein expression may be measured by conjugation of a molecule with a fluorescent dye, followed by sorting in a fluorescent cell sorter. In general, it is preferable to use two monoclonal antibodies, one that binds a cell surface molecule expressed and a second that binds a cell surface molecule that is expressed only after activation. Each monoclonal antibody is conjugated to a different colored dye, that can be distinguished by spectrofluorometry. In the preferred embodiment, the normally expressed cell surface molecule is GPIIbIIIa; the cell surface molecule expressed after activation is P-selectin. It is well know in the art to make monoclonal antibodies to proteins. U.S. Pat. No. 5,470,738, issued in 1995 to Freilich et al, is one example of a method of making monoclonal antibodies to GPIIIa. Another anti-platelet monoclonal antibody is that to GP IV, as disclosed by U.S. Pat. No. 5,231,025, issued in 1993 to Gralnisch. However, it is most convenient to purchase antibodies commercially from such companies as Becton-Dickinson (Philadelphia).
# A basal measurement of spontaneous activation is obtained and the cells are then challenged with an agonist. The difference between cells challenged to activate minus the basal measurement is a measure of cell function. In the preferred embodiment, the agonist is 10 nM thrombin.
# P-selectin is an internal protein that is exposed on the surface of the platelet after activation. Once activated, platelets cannot be activated again, that is, they are nonfunctional. Platelets which have aggregated are likewise nonfunctional. Measurement of P-selectin before and after activation with thrombin provides a measure of the ability of the platelets to be activated.
# P-selectin expression in response to a challenge of 10 nM thrombin is a highly accurate and quantitative method to assess platelet function using flow cytometry techniques. A monoclonal antibody to the platelet GPIIbIIIa receptor (Becton-Dickinson) is conjugated with green fluorescence, marking all platelets with a green detection. […] About 10,000 to 25,000 platelets are counted and measured for P-selectin expression and the % positive cells are defined as activated platelets that express P-selectin. Platelets that are activated are not capable of being activated a second time; that is, they are essentially nonfunctional.
# It was proposed years ago by Dawson (Transfusion 21:215-218. (1981)) that ribose at the concentration of 15 mM is beneficial to stored whole blood. It was assumed that ribose functioned by raising the energy levels of the cells, as discussed at length in U.S. Pat. No. 6,159,942. […] However, it should be noted that the platelet storage milieu is an austere environment, lacking the homeostatic and buffering mechanisms of the kidneys, lungs and livers of an intact organism. Various concentrations of D-Ribose were tested to determine the optimum level for platelet storage. […] Platelet concentrate bags were obtained from a local transfusion center within two hours of collection from the donor. The platelets were either supplemented with the D-Ribose cocktail directly into the bag or the platelets were divided into a series of 10 tubes into each of which two ml of platelets were added. Platelet function was assessed by ATP secretion, platelet aggregation, P-selectin expression, platelet count and pH. Platelet function was measured every 24 hours. The bags and tubes were placed on a rotating wheel at room temperature for the duration of the experiment.
# For the concentration test, platelets were stored for five days in standard platelet storage solution at room temperature and gentle agitation with or without various levels of ribose. At five days the P-selectin expression test was performed.
# [2] = 30 grams of ribose each day, subjects; cited from earlier work
# platelets (aggregation) = assay: Platelet aggregation on thrombin challenge (optical density / aggregometer); type: cell-based
# Text: Another parameter of platelet function is the ability to aggregate when challenged by an agonist. The platelet suspension is dense and milky white. Aggregation and subsequent settling of the aggregates can be estimated visually, or measured with a densitometer.
# As a second measure of the effect of ribose on platelets, platelet aggregation was estimated. Platelet aggregation is a crucial function of platelet activity; platelets that cannot aggregate are essentially nonfunctional. Platelets were stored as above. The optical density of the suspension was measured before and after thrombin challenge.
# Platelet aggregation was measured with a platelet aggregometer (Chronolog, Inc., Irvine, Calif.). Platelet-rich, turbid suspensions were stirred in a cuvette and the transmittance of light through the sample relative to a platelet poor blank is recorded. When a aggregating agent is added, activated platelets with exposed fibrinogen receptors (GPIIbIIIa) are brought in close contact with each other in a medium containing calcium and fibrinogen and form increasingly large platelet aggregates, accompanied by a decrease in turbidity. The change in optical density was then translated by the instrument to percent aggregation. Simple stated, as platelets clump, more light passes through the cuvette.
# bacteria = assay: Bacterial contamination of platelet storage solution by colony counts in Petri dishes; settings: D-Ribose added to the storage cocktail
# Description: Bacterial contamination was measured by colony counts in standard Petri dishes that had been inculated with the test solution. It is assumed that the millimolar glucose concentration in most platelet storage solutions contributes to the growth of bacteria. As noted above, Murphy (Table II) discloses a glucose-free solution for the storage of platelets. Elimination of reduction of glucose levels from millimolar to micromolar concentrations has a profound effect in reducing bacterial contamination, however, platelet function at five days, as measured by ATP secretion and P-selectin expression, was poor.
smiles,measurement,setting,value
O=C[C@H](O)[C@H](O)[C@H](O)CO [D-Ribose],Difference (% capable of being activated),[1]; 150 pM D-Ribose,10.9%
same,% Positive,"[1]; 150 pM D-Ribose, + thrombin",42.6%
same,P-Selectin Expression,"[1]; 150 pM D-Ribose, + thrombin",15475
same,% Positive,"[1]; 150 pM D-Ribose, basal",31.7%
same,P-Selectin Expression,"[1]; 150 pM D-Ribose, basal",11260
same,preserving function (P-selectin expression test),"[1]; 150 pM D-Ribose, five days storage",ineffective
same,retained activity,"[1]; 150 nM D-Ribose, 8 days of storage",greater than 75%
same,retained activity,"[1]; 150 nM D-Ribose, 10 days of storage",greater than 50%
same,Difference (% capable of being activated),[1]; 150 nM D-Ribose,60.6%
same,% Positive,"[1]; 150 nM D-Ribose, + thrombin",65.7%
same,P-Selectin Expression,"[1]; 150 nM D-Ribose, + thrombin",41480
same,% Positive,"[1]; 150 nM D-Ribose, basal",5.1%
same,P-Selectin Expression,"[1]; 150 nM D-Ribose, basal",2465
same,retained P-selectin expression activity,"[1]; 150 nM D-Ribose, five days storage",about 60%
same,retention of activation activity on activation with thrombin,"[1]; 153 nM D-Ribose, three days storage",78.8%
same,positive (activated) cells,"[1]; 153 nM D-Ribose, three days storage, basal",5%
same,Difference (% capable of being activated),[1]; 15 μM D-Ribose,58.3%
same,% Positive,"[1]; 15 μM D-Ribose, + thrombin",64.4%
same,P-Selectin Expression,"[1]; 15 μM D-Ribose, + thrombin",34960
same,% Positive,"[1]; 15 μM D-Ribose, basal",6.1%
same,P-Selectin Expression,"[1]; 15 μM D-Ribose, basal",3275
same,Difference (% capable of being activated),[1]; 1.5 mM D-Ribose,34.4%
same,% Positive,"[1]; 1.5 mM D-Ribose, + thrombin",60.0%
same,P-Selectin Expression,"[1]; 1.5 mM D-Ribose, + thrombin",32400
same,% Positive,"[1]; 1.5 mM D-Ribose, basal",40.4%
same,P-Selectin Expression,"[1]; 1.5 mM D-Ribose, basal",21605
same,retained P-selectin expression activity,"[1]; 1.5 mM D-Ribose, five days storage",about 60%
same,tolerance of ingestion,[2],no ill effects
same,platelet samples with aggressive aggregation response to 10 nM thrombin,platelets (aggregation); day 3,all five
same,platelet samples responding (aggregation) to 10 nM thrombin,platelets (aggregation); day five,four out of five
same,platelet samples able to aggregate in response to thrombin challenge,platelets (aggregation); day seven,three out of five
same,aggregation on thrombin challenge,platelets (aggregation); platelets stored in 150 pM D-Ribose,no aggregation
same,aggregation on thrombin challenge,platelets (aggregation); platelets stored in 150 nM D-Ribose,strong aggregation
same,aggregation on thrombin challenge,platelets (aggregation); platelets stored in 15 μM D-Ribose,very weak effect
same,aggregation on thrombin challenge,platelets (aggregation); platelets stored in 1.5 mM D-Ribose,no aggregation
same,incidence of bacterial contamination,bacteria,lower incidence of bacterial contamination
